These results are taken from PMC10703884, “Targeting the COMMD4–H2B protein complex in lung cancer” (British Journal of Cancer, 2023).

In one series the test system is H2B. Kind of series: FLAG pull-down, COMMD4-FLAG versus A70K mutant with H2B. Format: binding. Conditions: compared to COMMD4-FLAG. The method, then: (§1) For siRNA transfections, cells were transfected with negative control or COMMD4 siRNA #2 (CCAUGUCCCUCUCAGCAGA[dT][dT] MISSION® siRNA, Sigma-Aldrich) using RNAiMax (Life Technologies) as previously described and samples were analysed 48 to 72 h post-transfection. The H2B wild-type (FLAG-H2BWT) and mutant (FLAG-H2BMUT1) expression constructs were generated with the 10-amino acid peptide and the corresponding mutant cloned into the expression vector pCDNA3.1/(+)-N-DYK containing an N-terminal FLAG tag and a C-terminal nuclear localisation signal (AAKRVKLDS) (GenScript). A70K FLAG-COMMD4 expression construct was generated by mutating the corresponding COMMD4-FLAG construct to harbour an A70K mutation (GenScript). Cells were mock-transfected, or transfected with FLAG-H2BWT/FLAG-H2BMUT1, or COMMD4-FLAG/A70K with FuGENE® HD (Promega) using the manufacturer’s protocol and analysed 24 h post-transfection.
Co-immunoprecipitations were performed as previously summarised, using ice-cold NP40 buffer. Assays for co-immunoprecipitations were performed at 4 °C from HEK293T, transiently expressing the FLAG-H2B WT or MUT plasmid. Proteins were captured using anti-FLAG M2 Dynabeads (ThermoFisher) and washed three times in NP40 buffer prior to analysis. […]

The subject of a further series is NSCLC cells. Kind of series: Immunofluorescence γH2AX and MDC1 foci, NSCLC cells. Format: cell-based. The following applies: 6 Gy IR, 0.5 to 2 h post-IR, 50 cells per condition, three independent experiments. The method, then:
as §1
NSCLC and control cells transfected with siRNA or H2B plasmids were grown in optical glass bottom 96-well plates (Cellvis). Post-treatment, cells were pre-extracted with ice-cold extraction buffer (20 mM HEPES (pH 8), 20 mM NaCl, 5 mM MgCl2, 1 mM ATP, 0.5% NP40), to remove the soluble proteins and processed as previous. Images were captured using a Delta Vision PDV microscope 100x/1.42 Oil objective (Applied Precision, Inc). All immunofluorescence figures were assembled using Adobe Photoshop. High-content microscopy was performed using the InCell Analyzer 6500 Imaging System (GE Healthcare Life Sciences). Images were analysed using the InCarta Image Analysis software (GE Healthcare Life Sciences) where a minimum of 50 nuclei were quantified per experiment.
Fig. 4 Induction of DSBs in NSCLC and control cells. a Immunofluorescence staining of H1299 NSCLC cells transfected with control or COMMD4 siRNA #2 and FLAG-H2BWT or FLAG-H2BMUT1 is shown. […]
independent experiments where 50 cells were quantified per condition. γH2AX is shown in […]
mean ± SD from three independent experiments where 50 cells were quantified per condition.

In series [1] the test system is HBEC3-KT cells. Briefly: Clonogenic cell viability after IR, HBEC3-KT cells. Format: cell-based, Human. The following applies: varying IR doses, 7–10 days recovery, three independent experiments. Here is the method:
(§2) H1299, CRL5889 and H460 cells were cultured in Roswell Park Memorial Institute (RPMI) 1640 medium (Life Technologies) containing 10% foetal bovine serum (Thermo Fisher Scientific). Human bronchial epithelial cells (HBEC3-KT) were maintained in keratinocyte serum-free medium supplemented with epidermal growth factor and bovine pituitary extract (Life Technologies). The histology features and origin of all cell lines used have been previously described. Cell lines were authenticated using STR profiling. Cells were grown in a humidified incubator at 37 °C/5% CO2 atmosphere. All cell lines were verified to be free of mycoplasma contamination.
(§3) Irradiations were done at room temperature using a ^137Cs source (Gammacell 40 Exactor [MDS Nordion]; dose rate 1.1 Gy/min). Phalloidin-Atto 488 was purchased from Sigma-Aldrich and Hoechst 33342 was purchased from Thermo Fisher Scientific.
(§4) For siRNA transfections, cells were transfected with negative control or COMMD4 siRNA #2 (CCAUGUCCCUCUCAGCAGA[dT][dT] MISSION® siRNA, Sigma-Aldrich) using RNAiMax (Life Technologies) as previously described and samples were analysed 48 to 72 h post-transfection. […] Cells were mock-transfected, or transfected with FLAG-H2BWT/FLAG-H2BMUT1, or COMMD4-FLAG/A70K with FuGENE® HD (Promega) using the manufacturer’s protocol and analysed 24 h post-transfection. […]

For series [2], the system named is H460, H1299 and CRL5889 NSCLC cells. Briefly: Clonogenic cell viability after IR, NSCLC cells. The following applies: varying IR doses, 7–10 days recovery, three independent experiments, compared to control siRNA or FLAG-H2BMUT1/mock. Format: cell-based. Here is the method: as §2, §3, §4
The test system of series [3] is HBEC3-KT cells. Briefly: Immunofluorescence γH2AX and MDC1 foci, HBEC3-KT cells. It counts as cell-based, Human. Conditions: 6 Gy IR, 50 cells per condition, three independent experiments. The method, then: as §1
NSCLC and control cells transfected with siRNA or H2B plasmids were grown in optical glass bottom 96-well plates (Cellvis). Post-treatment, cells were pre-extracted with ice-cold extraction buffer (20 mM HEPES (pH 8), 20 mM NaCl, 5 mM MgCl2, 1 mM ATP, 0.5% NP40), to remove the soluble proteins and processed as previous. […] Images were analysed using the InCarta Image Analysis software (GE Healthcare Life Sciences) where a minimum of 50 nuclei were quantified per experiment. […]

For series [4], the system named is HBEC3-KT cells. Kind of series: Annexin V-FITC / propidium iodide apoptosis, HBEC3-KT cells. It counts as cell-based, Human. Conditions: flow cytometry, three independent experiments. Here is the method:
as §1, with “A70K FLAG-COMMD4 expression construct was generated by mutating the corresponding COMMD4-FLAG construct to harbour an A70K mutation (GenScript).” left out
The Annexin V-FITC apoptosis kit (United Bioresearch, ALX-850-020-K101, Enzo Life Sciences, Farmingdale, NY, USA) was used to measure viable and apoptotic cells, as previously described. […] CytExpert 2.0 software was used for data acquisition and analysed using the FlowJo v10 software.
Fig. 5 Induction of mitotic catastrophe and apoptosis in NSCLC cells. a Emerin and phalloidin staining respectively in three NSCLC and control HBEC3-KT cells. […] Asterix (*) denotes *P < 0.05 and ** P < 0.005 from 100 cells counted. […] The live cells were stained with Annexin V-FITC and propidium iodide and analysed by flow cytometer. […]
On the technique in general: Flow cytometry measures light scatter and fluorescence of single cells or particles in a stream.

A further series has as its target T1, recombinant GST-COMMD4 (Homo sapiens, UniProt Q9H0A8).
T1 construct: purchased Abnova H00054939-P01
Kind of series: ELISA, binding of H2B peptide and recombinant COMMD4. Conditions: H2B peptide 10 μg/ml on NeutrAvidin plate 2 h; recombinant GST-COMMD4 at different concentrations 45 min, room temperature; anti-COMMD4 antibody, chemiluminescent substrate. Here is the method: ELISA was performed using NeutrAvidin High Binding Capacity Coated 96-Well Plates (Thermo Scientific, 15507) according to the manufacturer’s instructions. Briefly, to the appropriate well, added 100 μl of H2B peptide at 10 μg/ml for 2 h at room temperature. Washed each well three times with NP40 buffer, blocked the plate overnight with 4% BSA in NP40 buffer and the next day added different concentrations of recombinant GST-COMMD4 as shown, for 45 min at room temperature. Washed each well three times with NP40 buffer and added anti-COMMD4 antibody for 45 min at room temperature followed by the enzyme-linked secondary antibody for 30 min at room temperature followed by detection using SuperSignal ELISA Pico Chemiluminescent Substrate (Thermo Scientific, 37070).

The nature of series [5]: Circular dichroism (CD) of H2B peptides. Format: physicochemical. Conditions: 0.1 mg/ml peptide, 50% TFE, 10 mM phosphate pH 7.2, 50 mM sodium fluoride, 20 °C, average of five scans. Here is the method:
For Circular Dichroism (CD), […] and H2BMUT1 peptides were resuspended at a concentration of 0.1 mg/ml in 50% 2,2,2-Trifluoroethanol (Sigma, T63002) with 10 mM Phosphate Buffer pH 7.2 and 50 mM sodium fluoride. The buffer solutions were filtered and degassed before diluting the peptides. The peptides were loaded into a 1 mm path-length quartz cuvette. CD spectra were measured at 20 °C in the far-UV from 250 to 190 nm with a Jasco J-1500 spectropolarimeter at a 0.1 nm interval with a 20 nm/min scan rate. All CD data represent an average of five scans, and the background was corrected with the buffer-matched diluent. The results were converted to the units of molar ellipticity vs. wavelength.
In general terms: CD spectra are sensitive to the conformation of chiral molecules.

The next series concerns COMMD4-H2B interaction. Kind of series: COMMD4 pull-down competition (COMMD4-H2B interaction). It counts as biochemical. The following applies: 1 μg (or amount specified) peptide pre-incubated with recombinant COMMD4 (300 ng) 30 min 4 °C, then 1 μg recombinant H2B 30 min 4 °C, immunoblot. The method, then: 300 ng of recombinant GST-COMMD4 (Abnova, H00054939-P01) was incubated with 1 μg of recombinant H2B (NEB, M2505S) in NP40 buffer for 30 min at 4 °C. For competition experiments, 1 μg (or the amount specified) of the N-terminal biotin-tagged H2B peptide (GenScript) was pre-incubated with recombinant COMMD4 for 30 min at 4 °C prior to addition of recombinant H2B. Proteins were captured using Streptavidin Dynabeads (ThermoFisher) or Protein A Dynabeads (ThermoFisher), washed three times in NP40 buffer, resuspended in 4X Leammli sample buffer (250 mM Tris pH 6.8, 8% SDS, […], 0.02% bromophenol blue, 8% β-mercaptoethanol) and immunoblotted with the indicated antibodies.
Fig. 2 In vitro binding of the H2B peptide. a In vitro binding of biotin-tagged H2B 10-amino acid peptide (H2BWTpep) and H2BMUT1pep (mutation of key amino acid) with COMMD4. […] FLAG-H2BWT and FLAG-H2BMUT1 were immunoprecipitated from HEK293T cells and the co-eluting proteins were immunoblotted with antibodies against […] and FLAG.
A general note: A western blot detects proteins with antibodies after separation by electrophoresis.

“Also recorded” adds a separate entry of the source. No end group written: not given here.

T1 sequence (Q9H0A8 whole entry): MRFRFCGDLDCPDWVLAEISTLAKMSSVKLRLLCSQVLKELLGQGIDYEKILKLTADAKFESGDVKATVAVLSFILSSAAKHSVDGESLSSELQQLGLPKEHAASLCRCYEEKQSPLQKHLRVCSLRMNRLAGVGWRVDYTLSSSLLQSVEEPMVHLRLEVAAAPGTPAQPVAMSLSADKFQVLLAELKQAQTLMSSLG

As for “A70K COMMD4-FLAG: COMMD4-FLAG construct mutated to harbour an A70K mutation”, the “binding with H2B of COMMD4 mutant” value in the series on H2B was “showed reduced binding with H2B”.
As to “CCAUGUCCCUCUCAGCAGA[dT][dT] [COMMD4 siRNA, reference compound]”, the “γH2AX and MDC1 (DNA repair) foci” value was “significantly more γH2AX and MDC1 foci” with NSCLC cells; “exhibited increased DNA repair foci” with HBEC3-KT cells [3]. Besides, the figures for the “sensitivity to ionising radiation (clonogenic viability)” value (in the series with HBEC3-KT cells [1]; in series [2]) were “neither hypersensitive to IR” and “hypersensitive to IR compared to control siRNA treated cells”, respectively.
As for “FLAG-H2BMUT1: corresponding mutant cloned into expression vector containing an N-terminal FLAG tag and a C-terminal nuclear localisation signal ({FLAG}-SFVNDKFERIAAKRVKLDS)”, the “γH2AX and MDC1 (DNA repair) foci” value in the series on NSCLC cells was “not FLAG-H2BMUT1, displayed a similar phenotype to COMMD4 siRNA depleted cells and had significantly more DNA repair foci”. Also, the induction of apoptosis entry in the series with HBEC3-KT cells [4] is reported as “no significant induction of apoptosis”.
What is called EC50 is the midpoint of the concentration-response curve. With SFVNDIFERI [H2BWTpep], at recombinant GST-COMMD4, the EC50 is 70 nM.
In series [5] (1 mm path length), SFVNDKFERI [H2BMUT1pep] had a peak ellipticity maximum of 190 nm and a peak minimum of 202 nm. In addition, the “secondary structure / helicity” value in series [5] is listed as “possesses little helical structure even in 50% TFE”. In addition, in the series with COMMD4-H2B interaction, the “effect on COMMD4-H2B interaction” value is given as “did not affect the COMMD4-H2B interaction; also recorded: maintains the COMMD4-H2B interaction”.
